{
  "source": "patent US20230357162A1",
  "about": "“COMPOUNDS, COMPOSITIONS AND METHODS” (Denali Therapeutics Inc., priority 2020, published 2023)",
  "tested_on": "IL-1β secretion, THP-1 cells",
  "assay": "IL-1β secretion assay in PMA-differentiated THP-1 cells stimulated with LPS and nigericin (ELISA readout)",
  "format": "cell-based",
  "settings": "Homo sapiens, THP-1, inhibition of IL-1β secretion, 25 ng/mL LPS then nigericin",
  "outline": "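THP-1 cells differentiated with 5 ng/mL PMA for 40 h, primed in serum-free medium with 25 ng/mL LPS for 2 h, then compound (0.5% DMSO) for 1 h before nigericin for 2 h at 37°C. Supernatant IL-1β quantified by ELISA; normalized to high (LPS + 5 µM nigericin) and low (LPS only) controls.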",
  "data": [
    {"smiles": "CC(C)c1nn(CC(=O)Nc2ccnn2C2CCC2)c(=O)c2ccc(Br)cc12", "note": "[Example 123, 2-(6-bromo-1-oxo-4-propan-2-ylphthalazin-2-yl)-N-(2-cyclobutylpyrazol-3-yl)acetamide]", "values": [
      {"measurement": "IC50", "setting": "class column of Table 3", "value": "< 10", "unit": "µM"},
      {"measurement": "IC50", "setting": "numeric column of Table 3", "value": 2.13, "unit": "µM"}
    ]},
    {"smiles": "Cc1cnc(NC(=O)Cn2nc(C(C)C)c3cc(Br)ccc3c2=O)c(F)c1", "note": "[Example 124, 2-(6-bromo-1-oxo-4-propan-2-ylphthalazin-2-yl)-N-(3-fluoro-5-methylpyridin-2-yl)acetamide]", "values": [
      {"measurement": "IC50", "setting": "class column of Table 3", "value": "< 10", "unit": "µM"},
      {"measurement": "IC50", "setting": "numeric column of Table 3", "value": 1.03, "unit": "µM"}
    ]},
    {"smiles": "CC(C)c1nn(CC(=O)NC2CCCOC2)c(=O)c2ccc(Br)cc12", "note": "(stereo not shown) [Example 125, 2-(6-bromo-1-oxo-4-propan-2-ylphthalazin-2-yl)-N-(oxan-3-yl)acetamide]", "values": [
      {"measurement": "IC50", "setting": "class column of Table 3", "value": "< 10", "unit": "µM"},
      {"measurement": "IC50", "setting": "numeric column of Table 3", "value": 3.06, "unit": "µM"}
    ]},
    {"smiles": "CC(C)c1nn(CC(=O)NC2CCC2)c(=O)c2ccc(Br)cc12", "note": "[Example 126, 2-(6-bromo-1-oxo-4-propan-2-ylphthalazin-2-yl)-N-cyclobutylacetamide]", "values": [
      {"measurement": "IC50", "setting": "class column of Table 3", "value": "< 10", "unit": "µM"},
      {"measurement": "IC50", "setting": "numeric column of Table 3", "value": 1.78, "unit": "µM"}
    ]},
    {"smiles": "CC(C)c1nn(CC(=O)NCC2CCC2)c(=O)c2ccc(Br)cc12", "note": "[Example 127, 2-(6-bromo-1-oxo-4-propan-2-ylphthalazin-2-yl)-N-(cyclobutylmethyl)acetamide]", "values": [
      {"measurement": "IC50", "setting": "class column of Table 3", "value": "< 10", "unit": "µM"},
      {"measurement": "IC50", "setting": "numeric column of Table 3", "value": 1.05, "unit": "µM"}
    ]},
    {"smiles": "CC(C)c1nn(CC(=O)NCc2ccnn2C)c(=O)c2ccc(Br)cc12", "note": "[Example 128, 2-(6-bromo-1-oxo-4-propan-2-ylphthalazin-2-yl)-N-[(2-methylpyrazol-3-yl)methyl]acetamide]", "values": [
      {"measurement": "IC50", "setting": "class column of Table 3", "value": "< 10", "unit": "µM"},
      {"measurement": "IC50", "setting": "numeric column of Table 3", "value": 5.26, "unit": "µM"}
    ]},
    {"smiles": "CC(C)c1nn(CC(=O)NCc2ccccc2)c(=O)c2ccc(Br)cc12", "note": "[Example 129, N-benzyl-2-(6-bromo-1-oxo-4-propan-2-ylphthalazin-2-yl)acetamide]", "values": [
      {"measurement": "IC50", "setting": "class column of Table 3", "value": "< 10", "unit": "µM"},
      {"measurement": "IC50", "setting": "numeric column of Table 3", "value": 20.1, "unit": "µM"}
    ]},
    {"smiles": "CC(C)c1nn(CC(=O)NCC2CCCO2)c(=O)c2ccc(Br)cc12", "note": "(stereo not shown) [Example 130, 2-(6-bromo-1-oxo-4-propan-2-ylphthalazin-2-yl)-N-(oxolan-2-ylmethyl)acetamide]", "values": [
      {"measurement": "IC50", "setting": "class column of Table 3", "value": "< 10", "unit": "µM"},
      {"measurement": "IC50", "setting": "numeric column of Table 3", "value": 2.92, "unit": "µM"}
    ]},
    {"smiles": "O=C(Cn1nc(C(F)(F)F)c2cc(Br)ccc2c1=O)Nc1ncncc1F", "note": "[Example 131, 2-[6-bromo-1-oxo-4-(trifluoromethyl)phthalazin-2-yl]-N-(5-fluoropyrimidin-4-yl)acetamide]", "values": [
      {"measurement": "IC50", "setting": "class column of Table 3", "value": "< 10", "unit": "µM"},
      {"measurement": "IC50", "setting": "numeric column of Table 3", "value": 1.27, "unit": "µM"}
    ]},
    {"smiles": "O=C(Cn1nc(C(F)(F)F)c2ccc(Br)cc2c1=O)Nc1ncncc1F", "note": "[Example 132, 2-[7-bromo-1-oxo-4-(trifluoromethyl)phthalazin-2-yl]-N-(5-fluoropyrimidin-4-yl)acetamide]", "values": [
      {"measurement": "IC50", "setting": "class column of Table 3", "value": "> 15", "unit": "µM"},
      {"measurement": "IC50", "setting": "numeric column of Table 3", "value": "> 50", "unit": "µM"}
    ]},
    {"smiles": "N#Cc1cnc(NC(=O)Cn2nc(C(F)F)c3c(F)c(Br)ccc3c2=O)nc1", "note": "[Example 133]", "values": [
      {"measurement": "IC50", "setting": "class column of Table 3", "value": "< 10", "unit": "µM"},
      {"measurement": "IC50", "setting": "numeric column of Table 3", "value": 0.109, "unit": "µM"}
    ]},
    {"smiles": "O=C(Cn1nc(C(F)F)c2cc(Br)ccc2c1=O)Nc1ncc(Cl)cc1F", "note": "[Example 134]", "values": [
      {"measurement": "IC50", "setting": "class column of Table 3", "value": "< 10", "unit": "µM"},
      {"measurement": "IC50", "setting": "numeric column of Table 3", "value": 1.21, "unit": "µM"}
    ]},
    {"smiles": "O=C(Cn1nc(C(F)F)c2cc(Br)ccc2c1=O)Nc1ncc(Cl)cn1", "note": "[Example 135]", "values": [
      {"measurement": "IC50", "setting": "class column of Table 3", "value": "< 10", "unit": "µM"},
      {"measurement": "IC50", "setting": "numeric column of Table 3", "value": 0.424, "unit": "µM"}
    ]},
    {"smiles": "N#Cc1cnc(NC(=O)Cn2nc(C(F)F)c3cc(Br)ccc3c2=O)nc1", "note": "[Example 136]", "values": [
      {"measurement": "IC50", "setting": "class column of Table 3", "value": "< 10", "unit": "µM"},
      {"measurement": "IC50", "setting": "numeric column of Table 3", "value": 0.181, "unit": "µM"}
    ]},
    {"smiles": "O=C(Cn1nc(OCF)c2cc(Br)ccc2c1=O)Nc1ncc(F)cn1", "note": "[Example 137, 2-[6-bromo-1-oxo-4-(fluoromethoxy)phthalazin-2-yl]-N-(5-fluoropyrimidin-2-yl)acetamide]", "values": [
      {"measurement": "IC50", "setting": "class column of Table 3", "value": "< 10", "unit": "µM"},
      {"measurement": "IC50", "setting": "numeric column of Table 3", "value": 0.186, "unit": "µM"}
    ]},
    {"smiles": "O=C(Cn1nc(OCC(F)(F)F)c2cc(Br)ccc2c1=O)Nc1ncc(F)cn1", "note": "[Example 138, 2-[6-bromo-1-oxo-4-(2,2,2-trifluoroethoxy)phthalazin-2-yl]-N-(5-fluoropyrimidin-2-yl)acetamide]", "values": [
      {"measurement": "IC50", "setting": "class column of Table 3", "value": "10 to 15", "unit": "µM"},
      {"measurement": "IC50", "setting": "numeric column of Table 3", "value": 11.1, "unit": "µM"}
    ]},
    {"smiles": "O=C(Cn1nc(C(F)CF)c2cc(Br)ccc2c1=O)Nc1ncc(F)cn1", "note": "(stereo not shown) [Example 139, 2-[6-bromo-4-(1,2-difluoroethyl)-1-oxophthalazin-2-yl]-N-(5-fluoropyrimidin-2-yl)acetamide]", "values": [
      {"measurement": "IC50", "setting": "class column of Table 3", "value": "< 10", "unit": "µM"},
      {"measurement": "IC50", "setting": "numeric column of Table 3", "value": 0.318, "unit": "µM"}
    ]}
  ]
}
